Laboratory results published in BindingDB's records for doi:10.7270/Q2CZ35MZ (Nmmlsc, 2009).

Target: T1, Bcl-2-like protein 2 (Homo sapiens, UniProt Q92843)
T1 sequence (Q92843 whole entry): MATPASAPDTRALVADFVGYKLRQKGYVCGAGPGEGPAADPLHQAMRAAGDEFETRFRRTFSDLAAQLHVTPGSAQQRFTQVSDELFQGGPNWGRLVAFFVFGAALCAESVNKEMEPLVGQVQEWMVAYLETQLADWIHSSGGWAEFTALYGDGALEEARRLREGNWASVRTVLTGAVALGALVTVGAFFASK
Assay: Bcl-W/Bim complex disruptors – biochemical, multiplexed, bead-based flow cytometry, HTS hits, confirmation (AID 2081)

[1] = inactive by the depositor's call

Structure (SMILES)	EC50 [1]	EC50
CCOc1ccccc1CNc1ccc(O)cc1	26 µM	–
COc1cc(/N=C2\SSNC2Cl)c(OC)cc1Cl (configuration not stated) [4-chloro-N-(4-chloro-2,5-dimethoxyphenyl)-5-dithiazolidinimine]	23 µM	–
Cc1nnc(Sc2cc(NCCO)c([N+](=O)[O-])c3nonc23)s1 [2-[[7-[(5-methyl-1,3,4-thiadiazol-2-yl)thio]-4-nitro-2,1,3-benzoxadiazol-5-yl]amino]ethanol]	–	1.31 µM
COc1ccccc1NC1=C(NC(C)=O)C(=O)c2ccccc2C1=O [N-[3-(2-methoxyanilino)-1,4-dioxonaphthalen-2-yl]acetamide]	–	3.35 µM
O=C(NCc1ccccc1)c1ccc2nc(-c3ccco3)c(-c3ccco3)nc2c1 [2,3-bis(furan-2-yl)-N-(phenylmethyl)quinoxaline-6-carboxamide]	11.4 µM	–
O=C(/C=C/c1ccc(-c2ccccc2[N+](=O)[O-])o1)c1ccccc1	21.2 µM	–
CNC1CCC(Br)CC(C(=O)C=Cc2cccc(OC)c2OC)C1=O (configuration not stated) [4-bromo-2-[(E)-3-(2,3-dimethoxyphenyl)-1-oxoprop-2-enyl]-7-(methylamino)-1-cycloheptanone]	47.3 µM	–
COc1ccc(CCNC(=O)c2ccc3nc(-c4ccco4)c(-c4ccco4)nc3c2)cc1OC [N-[2-(3,4-dimethoxyphenyl)ethyl]-2,3-di-2-furylquinoxaline-6-carboxamide]	20.8 µM	–

More lines, now with the values ahead:

EC50 [1]	EC50	Structure (SMILES)
15.5 µM	–	Clc1nc(NCc2cccnc2)nc(N2CCOCC2)n1 [MLS000121154]
20.5 µM	–	Oc1ccc(NCc2ccccc2OCc2ccccc2)cc1 [SMR000231540]
–	0.62 µM	CC(=O)OCCCNc1cc(Sc2nc3ccccc3s2)c2nonc2c1[N+](=O)[O-] [MLS000521052]
–	2.64 µM	Cc1cc2nn(-c3cccc4ccccc34)nc2cc1N [SMR000076237]
